# Source: ChEMBL document CHEMBL3585305, “Structure-Based Design and Optimization of Multitarget-Directed 2H-Chromen-2-one Derivatives as Potent Inhibitors of Monoamine Oxidase B and Cholinesterases” (J Med Chem, 2015)
# Experiments:
# [1] = target: T1, Amine oxidase [flavin-containing] A (Rattus norvegicus, UniProt P21396); assay: Inhibition of rat brain MAO-A using kynuramine substrate […] by spectrophotometric assay
# T1 sequence (P21396 whole entry): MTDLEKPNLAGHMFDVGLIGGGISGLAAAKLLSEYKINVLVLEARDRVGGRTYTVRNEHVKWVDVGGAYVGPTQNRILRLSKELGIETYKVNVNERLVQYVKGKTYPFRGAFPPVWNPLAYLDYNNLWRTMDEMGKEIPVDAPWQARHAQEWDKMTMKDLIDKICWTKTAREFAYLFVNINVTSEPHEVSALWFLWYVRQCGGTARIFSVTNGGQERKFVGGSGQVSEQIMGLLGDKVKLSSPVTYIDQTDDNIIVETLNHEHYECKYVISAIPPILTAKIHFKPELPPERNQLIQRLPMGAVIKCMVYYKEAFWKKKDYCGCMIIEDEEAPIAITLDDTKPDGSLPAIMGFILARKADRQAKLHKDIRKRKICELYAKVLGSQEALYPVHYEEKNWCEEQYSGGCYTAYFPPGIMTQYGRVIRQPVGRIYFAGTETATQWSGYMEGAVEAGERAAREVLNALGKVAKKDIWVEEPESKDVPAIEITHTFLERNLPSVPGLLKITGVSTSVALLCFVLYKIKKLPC
# [2] = target: T2, Amine oxidase [flavin-containing] B (Rattus norvegicus, UniProt P19643); assay: Inhibition of rat brain MAO-B using kynuramine substrate […] by spectrophotometric assay
# T2 sequence (P19643 whole entry): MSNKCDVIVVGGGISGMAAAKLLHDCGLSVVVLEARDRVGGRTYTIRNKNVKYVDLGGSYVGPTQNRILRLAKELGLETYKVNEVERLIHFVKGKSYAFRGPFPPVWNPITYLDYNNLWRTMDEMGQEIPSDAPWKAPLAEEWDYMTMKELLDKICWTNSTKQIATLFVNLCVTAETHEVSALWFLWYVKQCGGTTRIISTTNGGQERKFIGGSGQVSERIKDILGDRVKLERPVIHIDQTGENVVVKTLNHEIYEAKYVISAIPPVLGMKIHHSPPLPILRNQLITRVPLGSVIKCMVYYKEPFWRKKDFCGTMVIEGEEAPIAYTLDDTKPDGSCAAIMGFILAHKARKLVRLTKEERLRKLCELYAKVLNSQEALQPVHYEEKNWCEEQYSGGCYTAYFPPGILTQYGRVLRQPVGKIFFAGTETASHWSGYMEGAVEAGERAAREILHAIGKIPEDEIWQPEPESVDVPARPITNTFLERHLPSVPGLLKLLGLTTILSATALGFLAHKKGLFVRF
# Acetylcholinesterase [3] = target: Acetylcholinesterase (Electrophorus electricus, UniProt O42275); assay: Inhibition of electric eel AChE by spectrophotometric Ellman's method
# Cholinesterase = Cholinesterase (Equus caballus, UniProt P81908); assay: Inhibition of equine serum BuChE by spectrophotometric Ellman's method
# [4] = target: T1, Amine oxidase [flavin-containing] A; assay: Inhibition of rat brain MAO-A using kynuramine substrate […] at 10 uM by spectrophotometric assay
# [5] = target: Cholinesterase (Equus caballus) (UniProt P81908); assay: Inhibition of equine serum BuChE at 10 uM by spectrophotometric Ellman's method
# [6] = target: T3, Amine oxidase [flavin-containing] A (Homo sapiens, UniProt P21397); assay: Inhibition of human recombinant MAO-A using kynuramine substrate at 10 uM by spectrophotometric assay
# T3 sequence (P21397 whole entry): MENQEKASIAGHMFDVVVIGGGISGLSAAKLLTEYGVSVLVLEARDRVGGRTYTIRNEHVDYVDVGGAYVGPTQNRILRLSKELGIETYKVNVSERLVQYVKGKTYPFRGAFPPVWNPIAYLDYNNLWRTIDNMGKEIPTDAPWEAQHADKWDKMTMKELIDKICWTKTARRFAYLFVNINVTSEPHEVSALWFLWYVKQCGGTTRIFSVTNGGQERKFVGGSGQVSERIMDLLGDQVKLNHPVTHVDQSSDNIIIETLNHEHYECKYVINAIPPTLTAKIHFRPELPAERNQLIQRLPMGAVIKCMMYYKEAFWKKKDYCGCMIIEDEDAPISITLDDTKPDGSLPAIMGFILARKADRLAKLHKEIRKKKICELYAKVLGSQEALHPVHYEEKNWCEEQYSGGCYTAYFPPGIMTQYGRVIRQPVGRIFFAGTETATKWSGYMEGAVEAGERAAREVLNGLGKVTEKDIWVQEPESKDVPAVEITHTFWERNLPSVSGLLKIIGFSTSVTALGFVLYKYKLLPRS
# [7] = target: T4, Amine oxidase [flavin-containing] B (Homo sapiens, UniProt P27338)
# T4 sequence (P27338 whole entry): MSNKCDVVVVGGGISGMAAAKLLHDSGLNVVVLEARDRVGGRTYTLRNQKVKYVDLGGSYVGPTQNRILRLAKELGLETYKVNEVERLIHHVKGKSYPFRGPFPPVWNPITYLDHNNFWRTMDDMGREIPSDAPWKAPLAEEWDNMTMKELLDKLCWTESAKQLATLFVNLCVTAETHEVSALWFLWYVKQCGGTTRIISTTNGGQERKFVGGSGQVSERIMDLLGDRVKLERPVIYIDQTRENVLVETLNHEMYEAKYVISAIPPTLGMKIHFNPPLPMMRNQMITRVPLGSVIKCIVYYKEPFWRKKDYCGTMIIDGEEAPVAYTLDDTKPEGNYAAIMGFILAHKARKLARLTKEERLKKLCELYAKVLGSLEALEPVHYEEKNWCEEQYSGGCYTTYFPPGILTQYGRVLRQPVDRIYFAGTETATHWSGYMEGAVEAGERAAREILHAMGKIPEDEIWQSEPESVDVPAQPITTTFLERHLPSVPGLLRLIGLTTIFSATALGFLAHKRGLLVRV
# Description: Inhibition of human recombinant MAO-B using kynuramine substrate by spectrophotometric assay
# Acetylcholinesterase [8] = target: Acetylcholinesterase (Homo sapiens, UniProt P22303); assay: Inhibition of human recombinant AChE by spectrophotometric Ellman's method
# [9] = target: T2, Amine oxidase [flavin-containing] B; assay: Inhibition of rat brain MAO-B using kynuramine substrate […] at 10 uM by spectrophotometric assay
# [10] = target: T3, Amine oxidase [flavin-containing] A; assay: Inhibition of human recombinant MAO-A using kynuramine substrate by spectrophotometric assay
# Chain of Cholinesterase (Equus caballus) (P81908 whole entry): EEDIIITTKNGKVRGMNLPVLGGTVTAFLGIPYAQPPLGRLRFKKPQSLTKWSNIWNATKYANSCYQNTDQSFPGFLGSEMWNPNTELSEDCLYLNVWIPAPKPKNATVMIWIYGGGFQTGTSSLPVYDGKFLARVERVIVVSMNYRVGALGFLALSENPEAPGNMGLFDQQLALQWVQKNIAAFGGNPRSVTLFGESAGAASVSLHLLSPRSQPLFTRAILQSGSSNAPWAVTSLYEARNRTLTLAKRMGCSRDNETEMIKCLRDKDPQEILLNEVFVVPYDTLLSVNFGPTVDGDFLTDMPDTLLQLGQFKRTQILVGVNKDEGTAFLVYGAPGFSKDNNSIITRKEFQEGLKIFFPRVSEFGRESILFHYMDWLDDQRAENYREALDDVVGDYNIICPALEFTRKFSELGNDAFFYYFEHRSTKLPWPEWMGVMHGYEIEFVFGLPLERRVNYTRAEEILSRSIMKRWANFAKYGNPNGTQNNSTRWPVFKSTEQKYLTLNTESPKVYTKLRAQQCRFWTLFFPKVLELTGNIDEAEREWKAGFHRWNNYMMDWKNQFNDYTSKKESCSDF
# Chain of Cholinesterase (P81908 whole entry): as above
# Chain of Acetylcholinesterase (Homo sapiens, UniProt P22303) (P22303 whole entry): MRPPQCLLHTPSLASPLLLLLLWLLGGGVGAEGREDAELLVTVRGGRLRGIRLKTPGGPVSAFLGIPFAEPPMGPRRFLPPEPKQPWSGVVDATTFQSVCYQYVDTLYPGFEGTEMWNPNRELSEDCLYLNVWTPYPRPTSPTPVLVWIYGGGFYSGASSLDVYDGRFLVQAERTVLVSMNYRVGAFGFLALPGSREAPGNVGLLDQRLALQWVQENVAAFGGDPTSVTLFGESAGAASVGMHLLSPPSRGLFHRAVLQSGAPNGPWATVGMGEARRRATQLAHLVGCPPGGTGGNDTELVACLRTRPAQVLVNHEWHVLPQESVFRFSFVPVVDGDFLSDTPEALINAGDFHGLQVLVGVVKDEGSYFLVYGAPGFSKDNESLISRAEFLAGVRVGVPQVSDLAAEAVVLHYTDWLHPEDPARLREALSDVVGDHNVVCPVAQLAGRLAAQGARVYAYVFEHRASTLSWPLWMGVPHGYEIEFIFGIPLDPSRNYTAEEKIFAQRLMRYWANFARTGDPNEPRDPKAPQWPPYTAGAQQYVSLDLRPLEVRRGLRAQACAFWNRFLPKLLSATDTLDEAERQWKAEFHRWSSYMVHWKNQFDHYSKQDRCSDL
# Chain of Acetylcholinesterase (Electrophorus electricus, UniProt O42275) (O42275 whole entry): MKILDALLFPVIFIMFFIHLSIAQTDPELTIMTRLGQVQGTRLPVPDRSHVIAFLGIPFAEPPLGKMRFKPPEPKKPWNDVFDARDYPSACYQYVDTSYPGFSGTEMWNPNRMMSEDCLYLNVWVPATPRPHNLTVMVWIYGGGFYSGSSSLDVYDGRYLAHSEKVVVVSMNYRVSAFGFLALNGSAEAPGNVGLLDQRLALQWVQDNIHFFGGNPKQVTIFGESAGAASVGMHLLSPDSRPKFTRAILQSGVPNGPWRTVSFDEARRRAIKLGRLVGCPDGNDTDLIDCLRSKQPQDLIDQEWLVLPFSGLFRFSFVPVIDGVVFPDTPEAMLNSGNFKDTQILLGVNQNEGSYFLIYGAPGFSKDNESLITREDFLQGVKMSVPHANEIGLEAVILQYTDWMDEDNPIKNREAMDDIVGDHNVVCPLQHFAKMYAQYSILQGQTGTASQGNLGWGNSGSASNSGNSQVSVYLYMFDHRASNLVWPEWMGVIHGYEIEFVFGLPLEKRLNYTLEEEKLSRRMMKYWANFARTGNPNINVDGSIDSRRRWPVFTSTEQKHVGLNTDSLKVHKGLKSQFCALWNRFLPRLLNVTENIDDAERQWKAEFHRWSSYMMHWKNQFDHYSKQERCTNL
Structure (SMILES),IC50 [1],IC50 [2],IC50 (Acetylcholinesterase [3]),IC50 (Cholinesterase),inhibition at 10 µM [4],inhibition [5],inhibition at 10 µM [6],IC50 [7],IC50 (Acetylcholinesterase [8]),inhibition at 10 µM [9],IC50 [10]
Cc1c(C)c2ccc(OCCCCCN(C)Cc3cccc(C#N)c3)cc2oc1=O,5300 nM,2500 nM,2300 nM,4100 nM,,,,,,,
Cc1cc(=O)oc2cc(OCc3ccc(CN(C)Cc4ccc(C#N)cc4)cc3)ccc12,,410 nM,3300 nM,,10%,29%,39%,39 nM,8500 nM,,
O=c1cc(CO)c2ccc(OCc3ccc(CNCc4ccccc4)cc3)cc2o1,,530 nM,440 nM,570 nM,19%,,,,,,
CN(Cc1cccc(Cl)c1)Cc1cccc(COc2ccc3ccc(=O)oc3c2)c1,,3400 nM,5700 nM,310 nM,17%,,,,,,
CN(Cc1ccc(COc2ccc3ccc(=O)oc3c2)cc1)Cc1cccc(Cl)c1,,2700 nM,590 nM,1200 nM,12%,,,,,,
CCN(CC)Cc1ccc(COc2ccc3ccc(=O)oc3c2)cc1,,,2900 nM,3400 nM,9%,,,,,44%,
CN(Cc1cccc(C#N)c1)Cc1cccc(COc2ccc3ccc(=O)oc3c2)c1,,3700 nM,4200 nM,2800 nM,2%,,,,,,
Cc1cc2ccc(OCc3ccc(CN(C)Cc4ccccc4)cc3)cc2oc1=O,,2400 nM,260 nM,1100 nM,0%,,,,500 nM,,
CN(Cc1ccccc1)Cc1ccc(COc2ccc3cc(C#N)c(=O)oc3c2)cc1,,,200 nM,5500 nM,0%,,,,,41%,
CN(Cc1ccc(COc2ccc3ccc(=O)oc3c2)cc1)Cc1cccc(C#N)c1,,2800 nM,7400 nM,4100 nM,5%,,,,,,
Cc1c(C)c2ccc(OCCCCCN(C)Cc3ccc(C#N)cc3)cc2oc1=O,,3300 nM,2800 nM,4300 nM,48%,,,,,,
CN(Cc1ccccc1)Cc1ccc(COc2ccc3ccc(=O)oc3c2)cc1,,,750 nM,11000 nM,,,,,950 nM,,
Cc1c(C)c2ccc(OCc3ccc(CN(C)Cc4ccc(C#N)cc4)cc3)cc2oc1=O,,,4200 nM,,,18%,,,3900 nM,,
Cc1c(C)c2ccc(OCCCCN(C)Cc3ccccc3)cc2oc1=O,6600 nM,1100 nM,490 nM,3700 nM,,,,96 nM,790 nM,,480 nM
Cc1c(C)c2ccc(OCCCCCN(C)Cc3ccccc3)cc2oc1=O,4200 nM,980 nM,550 nM,2800 nM,,,,,,,
COc1cccc(CN(C)Cc2cccc(COc3ccc4ccc(=O)oc4c3)c2)c1,,2500 nM,6600 nM,880 nM,14%,,,,,,
Cc1c(C)c2ccc(OCCCN(C)Cc3ccccc3)cc2oc1=O,,330 nM,1300 nM,7800 nM,35%,,17%,134 nM,1000 nM,,
CN(C)Cc1cccc(COc2ccc3ccc(=O)oc3c2)c1,10000 nM,3200 nM,,5300 nM,,,,,,,

Structure (SMILES),IC50 [1],IC50 [2],IC50 (Acetylcholinesterase [3]),IC50 (Cholinesterase),inhibition at 10 µM [4],inhibition [5],inhibition at 10 µM [6],IC50 [7],IC50 (Acetylcholinesterase [8]),inhibition at 10 µM [9],IC50 [10]
CN(Cc1ccc(C#N)cc1)Cc1ccc(COc2ccc3ccc(=O)oc3c2)cc1,,270 nM,5600 nM,4400 nM,6%,,0%,45 nM,6000 nM,,
CN(CCc1ccc(COc2ccc3ccc(=O)oc3c2)cc1)Cc1ccccc1,,,850 nM,520 nM,,,,,,,
CN(Cc1ccc(C#N)cc1)Cc1ccc(COc2ccc3cc(C#N)c(=O)oc3c2)cc1,,990 nM,,,0%,14%,,,,,
CCN(CCCCCOc1ccc2c(C)c(C)c(=O)oc2c1)Cc1ccccc1,9500 nM,7800 nM,750 nM,940 nM,,,,,,,
CN(Cc1ccc(C#N)cc1)Cc1ccc(COc2ccc3c(CO)cc(=O)oc3c2)cc1,,35 nM,6300 nM,,0%,23%,,5.7 nM,,,4480 nM
CCN(CCCOc1ccc2c(C)c(C)c(=O)oc2c1)Cc1ccccc1,7400 nM,980 nM,360 nM,4000 nM,,,,,,,
O=c1ccc2ccc(OCc3ccc(CCNCc4ccccc4)cc3)cc2o1,,,4700 nM,640 nM,,,,,,,
CN(C)Cc1ccc(COc2ccc3ccc(=O)oc3c2)cc1,,3700 nM,7100 nM,240 nM,17%,,,,,,
Cc1cc2ccc(OCc3ccc(CN(C)Cc4cccc(Cl)c4)cc3)cc2oc1=O,,4500 nM,1300 nM,,0%,29%,,,,,
Cc1cc(=O)oc2cc(OCc3ccc(CN(C)Cc4cccc(Cl)c4)cc3)ccc12,,5000 nM,120 nM,,0%,47%,,,1000 nM,,
COc1cccc(CN(C)Cc2ccc(COc3ccc4ccc(=O)oc4c3)cc2)c1,,2900 nM,4600 nM,1400 nM,20%,,,,,,
Cc1c(C)c2ccc(OCCCCCN(C)Cc3cccc(Cl)c3)cc2oc1=O,,8900 nM,290 nM,2600 nM,42%,,,,,,
Cc1c(C)c2ccc(OCc3ccc(CN(C)Cc4cccc(Cl)c4)cc3)cc2oc1=O,,3400 nM,660 nM,,7%,48%,,,,,
Cc1cc(=O)oc2cc(OCc3ccc(CN(C)Cc4ccccc4)cc3)ccc12,,4100 nM,180 nM,1000 nM,10%,,,,910 nM,,
CN(Cc1ccccc1)Cc1cccc(COc2ccc3ccc(=O)oc3c2)c1,,,2300 nM,1000 nM,,,,,,,
Cc1cc2ccc(OCc3ccc(CN(C)Cc4ccc(C#N)cc4)cc3)cc2oc1=O,,1700 nM,7000 nM,,15%,16%,11%,17 nM,,,
CCN(CC)Cc1cccc(COc2ccc3ccc(=O)oc3c2)c1,,,1700 nM,6800 nM,43%,,,,,35%,
